Test results published in patent US8815940B2, “Coumarin-chalcones as anticancer agents” (Council of Scientific & Industrial Research, priority 2010, dated 2014).
pIC50: −log10 of the molar value. Read-outs that look alike come from different tables or passages of the source.

How the values were obtained:
[1] = system: KB (oral squamous cell carcinoma); experiment: sulforhodamine B cell cytotoxicity assay, KB; format: cell-based; conditions: Homo sapiens; Table 2; SRB assay, 48 h of exposure
Procedure: (§1) The human cancer cell lines—KB (oral squamous cell carcinoma). C33A (cervical carcinoma), MCF-7 (breast adenocarcinoma), A549 (lung carcinoma) and mouse embryo fibroblast (NIH3T3) were obtained from American Type Culture Collection (ATCC), USA. These cells were grown in recommended media supplemented with 10% FBS, 50 μg/mL gentamycin and 2.5 μg/mL amphotericin B in a 5% CO2 humidified atmosphere at 37° C. Cells below 15 passage level were used for this study. A colorimetric sulforhodamine B assay was used for the measurement of cell cytotoxicity. 1×10^4 cells (in 180 μL) were added to each well of 96-well plate and incubated overnight to allow for cell attachment. Cells were then treated with serial two-fold dilutions of test compounds (100 to 1.6 μM) and untreated cells receiving the same volume of medium served as control. After 48 h of exposure, cells were fixed with ice-cold 50% TCA, stained with 0.4% (w/v) SRB in 1% acetic acid, washed and air dried. Bound dye was dissolved in 150 μL of 10 mM tris base. The plates were read at 540 nm absorbance on plate reader (Polarstar Galaxy, BMG, Germany). The cytotoxic effects of compounds were calculated as % inhibition in cell growth as per the formula […].

[2] = system: C33A (cervical carcinoma); experiment: sulforhodamine B cell cytotoxicity assay, C33A; format: cell-based, human; conditions: for pIC50: Homo sapiens, C-33-A
Procedure: as §1

[3] = system: MCF-7 (breast adenocarcinoma); experiment: sulforhodamine B cell cytotoxicity assay, MCF-7; format: cell-based; conditions: Homo sapiens, MCF7; Table 2; SRB assay, 48 h of exposure
Procedure: as §1

A549 (lung carcinoma) = experiment: sulforhodamine B cell cytotoxicity assay, A549; format: cell-based; conditions: Homo sapiens, Table 2, SRB assay, 48 h of exposure
Procedure: as §1

[4] = system: mouse embryo fibroblast (NIH3T3); experiment: sulforhodamine B cell cytotoxicity assay, NIH3T3 non-cancer cells; format: cell-based
Procedure: as §1

[5] = system: HeLa Human cervical cancer cells; experiment: human tumor xenograft in SCID mice, tumor growth; format: in vivo; conditions: for T/C (tumor growth inhibition index): 100 mg/kg daily oral upto 15 days; for RTV (relative tumor volume): 100 mg/kg p.o. daily up to 15 days
Procedure: (§2) The in vivo efficacy studies were performed using human tumor xenografts in SCID mice. Human cervical cancer cells (HeLa) were injected subcutaneously (1×10^7 cells in 100 μl HBSS medium) on the right flank of each mouse. Tumor bearing mice were divided randomly into treatment groups and the treatment schedules began on day 7 of the xenograft. The test compound (S009-0131) was administered orally to each mouse at a daily dose of 100 mg/kg body weight, for 15 days. The standard anti-cancer drug Adriamycin (ADR) was used as ‘positive’ control and given to each mouse as an i.v. dose of 2 mg/kg body weight, Q7d×3 ([…]). The group of vehicle treated animals served as ‘negative’ control.
(§3) The tumor volume, body weight and signs of overt toxicity were monitored and recorded for the entire duration of the experiment (60 days). Tumor volumes were calculated using the formula (a×b2)/2, where a, b are two longest perpendicular diameters. Tumor growth was expressed in terms of relative tumor volume (RTV) which is the ratio of tumor volume on a particular day to the tumor volume on day 1 of the study. Tumor growth inhibition index (T/C) was calculated as follows: T/C=Average RTV of test group mice/Average RTV of control group mice.

[6] = animal weight and overt toxicity in the xenograft study; format: in vivo, SCID mice; conditions: for Average Animal weight: 100 mg/kg daily oral upto 15 days
Procedure: as §2, §3

human cancer cell lines = experiment: in vitro anticancer activity, cell line panel (cell line not specified); format: cell-based; conditions: poor activity or lack of activity against other cell lines
Procedure: as §1

With `CCOC(=O)c1cc2cc(C=CC(=O)c3ccc(C)cc3)cc(C(C)CC)c2oc1=O` (stereo not shown) [Example S009-0131, Ethyl 8-sec-butyl-2-oxo-6-(3-oxo-3-p-tolylprop-1-enyl)-2H-chromene-3-carboxylate] the pIC50 [1] was 4.75, the pIC50 ([2]; Table 1, SRB assay, 48 h of exposure, read-out: IC50 C33A (cervical cancer)) was 5.44 and the pIC50 ([2]; Table 2, SRB assay, 48 h of exposure, read-out: IC50 C33A (Cervical)) was 5.44. For the same compound, the pIC50 ([2]; read-out: IC50 against the C33A cell line) was 5.44, the “activity against cervical cancer (C33A)” value ([2]; in words) was “highly active” and the pIC50 [3] was 4.09. It also gave a pIC50 (A549 (lung carcinoma)) of 4.48, a pIC50 ([4]; Table 1, SRB assay, 48 h of exposure, read-out: IC50 NIH3T3 (mouse fibroblast)) of less than 3.82 and a pIC50 ([4]; Table 2, SRB assay, 48 h of exposure, read-out: IC50 NIH3T3 (Non-cancer, fibroblast)) of less than 3.82. The pIC50 ([4]; read-out: IC50 fibroblast cells NIH3T3) was less than 3.82, the “activity compared with standard drug adriamycin” value ([5]; HeLa xenograft, SCID mice) was “somewhat better than that of the standard drug adriamycin” and the “T/C (tumor growth inhibition index)” value ([5]; day 1) was 1. The “RTV (relative tumor volume)” value ([5]; day 1) was 1, the “T/C (tumor growth inhibition index)” value ([5]; day 5) was 0.58 and the “RTV (relative tumor volume)” value ([5]; day 5) was 0.76. For the same compound, the “T/C (tumor growth inhibition index)” value ([5]; day 9) was 0.48, the “RTV (relative tumor volume)” value ([5]; day 9) was 0.79 and the “T/C (tumor growth inhibition index)” value ([5]; day 12) was 0.61. The “RTV (relative tumor volume)” value ([5]; day 12) was 1.21, the “T/C (tumor growth inhibition index)” value ([5]; day 15) was 0.39 and the “RTV (relative tumor volume)” value ([5]; day 15) was 1.28. For the same compound, the “T/C (tumor growth inhibition index)” value ([5]; day 19) was 0.28, the “RTV (relative tumor volume)” value ([5]; day 19) was 1.01 and the “T/C (tumor growth inhibition index)” value ([5]; day 22) was 0.33. For the same compound, the “RTV (relative tumor volume)” value ([5]; day 22) was 1.73, the “T/C (tumor growth inhibition index)” value ([5]; day 25) was 0.29 and the “RTV (relative tumor volume)” value ([5]; day 25) was 1.82. The “T/C (tumor growth inhibition index)” value ([5]; day 29) was 0.33, the “RTV (relative tumor volume)” value ([5]; day 29) was 2.39 and the “T/C (tumor growth inhibition index)” value ([5]; day 33) was 0.42. The “RTV (relative tumor volume)” value ([5]; day 33) was 4.20, the “T/C (tumor growth inhibition index)” value ([5]; day 37) was 0.42 and the “T/C (tumor growth inhibition index)” value ([5]; day 41) was 0.44. The “T/C (tumor growth inhibition index)” value ([5]; day 44) was 0.45, the “T/C (tumor growth inhibition index)” value ([5]; day 51) was 0.38 and the “tumor volumes relative to the vehicle control” value ([5]; oral administration, mice bearing HeLa cells) was “significant reduction of tumor volumes”. The “Average Animal weight” value ([6]; day 1) was 24.2 grams, the “Average Animal weight” value ([6]; day 5) was 24.2 grams and the “Average Animal weight” value ([6]; day 9) was 23.5 grams. For the same compound, the “Average Animal weight” value ([6]; day 12) was 18.5 grams, the “Average Animal weight” value ([6]; day 15) was 22.6 grams and the “Average Animal weight” value ([6]; day 19) was 22.4 grams. The “Average Animal weight” value ([6]; day 22) was 23.0 grams, the “Average Animal weight” value ([6]; day 25) was 23.2 grams and the “Average Animal weight” value ([6]; day 29) was 23.6 grams. For the same compound, the “Average Animal weight” value ([6]; day 33) was 23.3 grams, the “Average Animal weight” value ([6]; day 37) was 23.0 grams and the “Average Animal weight” value ([6]; day 41) was 23.4 grams. For the same compound, the “Average Animal weight” value ([6]; day 44) was 23.8 grams, the “Average Animal weight” value ([6]; day 51) was 23.4 grams and the “toxicity to the animals (loss of weight)” value ([6]; during the period of the study) was “apparently non-toxic”. The “selectivity among cell lines” value (human cancer cell lines) was “most selective”.
